Results published in article PMC3766860, “Two Novel Tyrosinase Inhibitory Sesquiterpenes Induced by CuCl2 from a Marine-Derived Fungus Pestalotiopsis sp. Z233” (Marine Drugs, 2013).

Biological target: Mushroom tyrosinase
Experiment: o-diphenolase assay of mushroom tyrosinase, L-DOPA substrate, DOPAchrome absorbance at […] nm
Type: biochemical

| SMILES | IC50 |
| --- | --- |
| CC(=O)OC[C@]12[C@H](OC(C)=O)[C@H](O)C[C@H](C)[C@]1(OC(C)=O)[C@@H](OC(C)=O)[C@@H](C(C)(C)O)C[C@H]2OC(=O)c1ccccc1 (relative stereo) [compound 1, 1β,5α,6α,14-tetraacetoxy-9α-benzoyloxy-7βH-eudesman-2β,11-diol] | 14.8 µM |
| CC(=O)O[C@@]12C[C@@H](C(C)(C)O)C[C@@H](OC(=O)c3ccccc3)[C@@]1(CO)[C@H](O)[C@H](O)C[C@@]2(C)OC(C)=O (relative stereo) [compound 2, 4α,5α-diacetoxy-9α-benzoyloxy-7βH-eudesman-1β,2β,11,14-tetraol] | 22.3 µM |
